The source of these data is patent US20130196050A1, “SALTY TASTE ENHANCER” (AJINOMOTO CO., INC., priority 2010, published 2013).

The target in assay [1] is T1, Human ENaC δ, β and γ subunit (Homo sapiens, UniProt P51168+P51170+P51172).
T1 construct: expressed in transfected cells; host or cells: Xenopus laevis (African clawed frog) oocytes injected with cRNA
T1 sequence (P51172 1-638 isoform P51172-1): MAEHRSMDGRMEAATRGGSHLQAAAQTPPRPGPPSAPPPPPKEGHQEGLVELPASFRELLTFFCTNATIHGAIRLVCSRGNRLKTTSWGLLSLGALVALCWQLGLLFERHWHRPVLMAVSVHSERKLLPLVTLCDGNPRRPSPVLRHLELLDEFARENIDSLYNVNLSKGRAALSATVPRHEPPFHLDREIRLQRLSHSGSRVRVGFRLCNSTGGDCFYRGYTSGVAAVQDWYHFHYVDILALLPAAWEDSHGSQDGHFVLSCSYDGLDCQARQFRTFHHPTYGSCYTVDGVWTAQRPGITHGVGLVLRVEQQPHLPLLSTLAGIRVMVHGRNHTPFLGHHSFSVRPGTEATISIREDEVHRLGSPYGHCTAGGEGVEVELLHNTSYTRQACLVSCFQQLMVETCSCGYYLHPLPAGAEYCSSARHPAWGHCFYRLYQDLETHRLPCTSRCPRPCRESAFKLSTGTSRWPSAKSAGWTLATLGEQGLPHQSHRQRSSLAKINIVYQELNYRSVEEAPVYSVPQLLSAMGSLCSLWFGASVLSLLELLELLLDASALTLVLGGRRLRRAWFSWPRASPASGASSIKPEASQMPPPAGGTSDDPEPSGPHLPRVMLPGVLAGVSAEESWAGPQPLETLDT
T1 sequence (P51168 1-640): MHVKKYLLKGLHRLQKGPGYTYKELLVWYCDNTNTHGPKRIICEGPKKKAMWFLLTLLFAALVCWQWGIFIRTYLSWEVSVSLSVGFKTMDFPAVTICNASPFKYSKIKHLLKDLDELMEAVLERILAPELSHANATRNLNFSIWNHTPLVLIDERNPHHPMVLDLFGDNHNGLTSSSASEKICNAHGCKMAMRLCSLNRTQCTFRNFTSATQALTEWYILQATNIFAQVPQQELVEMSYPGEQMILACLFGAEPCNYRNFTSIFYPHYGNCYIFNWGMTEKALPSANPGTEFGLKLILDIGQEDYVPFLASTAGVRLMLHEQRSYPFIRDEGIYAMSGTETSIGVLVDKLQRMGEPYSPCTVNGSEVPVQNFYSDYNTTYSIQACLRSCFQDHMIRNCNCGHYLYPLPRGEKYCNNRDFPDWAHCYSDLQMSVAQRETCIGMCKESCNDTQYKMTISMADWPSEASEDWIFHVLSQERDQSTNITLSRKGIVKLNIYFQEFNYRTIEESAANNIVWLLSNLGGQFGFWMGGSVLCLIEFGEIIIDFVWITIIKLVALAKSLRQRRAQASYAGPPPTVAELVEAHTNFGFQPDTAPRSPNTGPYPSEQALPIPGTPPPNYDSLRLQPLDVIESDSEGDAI
T1 sequence (P51170 1-649): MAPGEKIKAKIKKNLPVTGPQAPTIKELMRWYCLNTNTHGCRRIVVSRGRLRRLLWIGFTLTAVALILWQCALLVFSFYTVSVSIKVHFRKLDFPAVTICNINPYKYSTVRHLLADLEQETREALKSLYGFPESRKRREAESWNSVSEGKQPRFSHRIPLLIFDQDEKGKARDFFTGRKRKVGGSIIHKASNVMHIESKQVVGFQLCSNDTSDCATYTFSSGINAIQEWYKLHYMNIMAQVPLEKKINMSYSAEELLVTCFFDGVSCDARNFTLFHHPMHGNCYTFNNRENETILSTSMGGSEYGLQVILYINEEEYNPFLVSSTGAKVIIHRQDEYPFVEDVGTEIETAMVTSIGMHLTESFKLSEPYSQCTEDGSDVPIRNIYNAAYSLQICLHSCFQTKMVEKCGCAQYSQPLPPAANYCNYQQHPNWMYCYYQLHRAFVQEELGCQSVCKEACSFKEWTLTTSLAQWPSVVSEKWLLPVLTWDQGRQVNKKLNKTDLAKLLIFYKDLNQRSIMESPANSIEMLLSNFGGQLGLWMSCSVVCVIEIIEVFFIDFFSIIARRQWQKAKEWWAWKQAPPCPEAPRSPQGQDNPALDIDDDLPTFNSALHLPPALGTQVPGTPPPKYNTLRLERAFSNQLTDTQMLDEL
The assay is described as follows: Measurement of ENaC activation potency (two electrode voltage clamp current in ENaC-expressing oocyte). To be noted: lowest concentration increasing the current value by not less than 10% vs before addition. The class given is cell-based. The protocol:
ENaC activation current value, namely, the inward current in ENaC-expressing oocyte was measured as follows.
According to the method described in Motonao Nakamura, Takao Shimizu: Experiment of African clawed frog oocyte, Experimental Medicine Vol. 11, No. 3, 224-232 (1993), oocyte was collected from African clawed frog, […], and the current value was measured by a Two Electrode Voltage Clamp technique. In the present invention, ND96 (96 mM NaCl, 2 mM KCl, 1 mM MgCl2, 5 mM Hepes, 1.8 mM CaCl2, pH 7.6) was used instead of MBS buffer in the above-mentioned document. Injector NANOLITER 2000 manufactured by World Precision Instruments was used for microinjection, OpusXpress 6000A manufactured by Molecular Devices was used for current value measurement by a Two Electrode Voltage Clamp technique, and Clampfit 10.2 software manufactured by Molecular Devices was used for data analysis.
Human ENaC δ, β and γ subunit genes shown by SEQ ID NOs: 1, 2 and 3, respectively, in the Sequence Listing were each cloned into a plasmid vector, and used as a template DNA for cRNA synthesis. cRNA was synthesized using MEGAscript kit manufactured by Ambion and according to the method of the manual of the manufacturer.
A mixture of the same amount of ENaC δ subunit cRNA (0.4 to 0.8 μg/μL), and β and γ subunits cRNA (0.4 μg/μL) was injected into the oocyte of African clawed frog at 27.6 nL per oocyte, and the oocyte was cultured for 16 hours to 72 hours. Thereafter, the oocyte was set on a measuring apparatus OpusXpress 6000A, the electrodes were inserted into the oocyte, the voltage was clamped at a level lower by −30 mV than the resting membrane potential by a Two Electrode Voltage Clamp technique, and the current value was measured.
To measure the ENaC activation potency, oocyte was stimulated with each test compound, and the minimum effective dose (hereinafter to be abbreviated as MED) of the compound at the time point when the electric current started to increase was measured. In this case, the minimum effective dose of the stimulation compound that increased the current value by not less than 10%, as compared to the current value before addition of the compound and without stimulation, was taken as MED. A smaller MED means higher ENaC activation potency.
Each test compound was directly dissolved in ND96, or first dissolved in dimethyl sulfoxide (DMSO) to 100 mM, and then prepared by diluting the solution with ND96 to a concentration used for the evaluation. The concentration of the test compound in ND96 was prepared to various concentrations within the range of 0.1 nM to 300 μm.
ND96 as a perfusion fluid was flowed at a rate of 0.5 mL/min through the measuring apparatus OpusXpress 6000A on which ENaC-expressing oocyte was set, the perfusion fluid was temporarily stopped every 3 minutes to add a test compound solution (0.25 mL) dissolved in ND96 at a rate of 0.5 mL/minute. In this way, the test compound was contacted with ENaC-expressing oocyte, and whether ENaC is activated by the compound was examined by measuring the current value. After addition of the test compound, feeding of the perfusion fluid was resumed to wash away the compound to be ready for the next addition of the compound.
The compound was added successively from a low concentration to a high concentration to stimulate ENaC-expressing oocyte. The concentrations actually added was, for example, 1 nM, 3 nM, 10 nM, 30 nM, 100 nM, 300 nM; 1 μM, 3 μM, 10 μm, 30 μm, 100 μm, 300 μm; 1.2 μM, 6 μM, 30 μm, 150 μm of one test compound. The compound was added from low concentrations to high concentrations at 3 minute intervals. The first compound was added from a low concentration to a high concentration, then the second and the third compounds were similarly added successively to the same oocyte, and changes in the current value were measured. The current value was continuously measured from the start to the end of the experiment. […]

For the next assay, the target named is T2, ENaC β subunit (Homo sapiens, UniProt P51168).
T2 sequence (P51168 1-640): T1 sequence (P51168 1-640)
T2 sequence (P51170 1-649 partner): T1 sequence (P51170 1-649)
T2 sequence (P37088 1-669 partner): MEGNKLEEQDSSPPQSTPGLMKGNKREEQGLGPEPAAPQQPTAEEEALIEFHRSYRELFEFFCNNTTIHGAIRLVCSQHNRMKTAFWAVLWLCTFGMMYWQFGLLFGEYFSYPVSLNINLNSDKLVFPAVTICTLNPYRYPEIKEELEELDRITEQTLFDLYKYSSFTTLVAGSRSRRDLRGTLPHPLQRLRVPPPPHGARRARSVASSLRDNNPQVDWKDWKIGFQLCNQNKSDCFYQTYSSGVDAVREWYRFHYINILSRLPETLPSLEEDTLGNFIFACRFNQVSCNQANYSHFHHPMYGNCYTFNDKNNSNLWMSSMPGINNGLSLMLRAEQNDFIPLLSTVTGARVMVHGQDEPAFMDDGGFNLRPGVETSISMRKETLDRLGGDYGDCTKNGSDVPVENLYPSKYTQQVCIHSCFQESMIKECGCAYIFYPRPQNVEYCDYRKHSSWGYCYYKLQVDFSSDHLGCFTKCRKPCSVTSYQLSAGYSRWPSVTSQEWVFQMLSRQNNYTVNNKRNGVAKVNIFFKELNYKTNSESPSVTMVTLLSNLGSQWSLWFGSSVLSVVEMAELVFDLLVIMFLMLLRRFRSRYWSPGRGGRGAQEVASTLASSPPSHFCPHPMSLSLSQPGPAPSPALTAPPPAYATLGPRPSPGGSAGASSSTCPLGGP
As to conditions: literature statement; cited from earlier work.

Turning to `COc1ccc(CCC(=O)Nc2c(O)cccc2O)cc1O` [Example 89], the “MED value (minimum effective dose)” value in assay [1] was 10 µM.

With `N[C@@H](CCc1ccccc1)C(=O)Nc1ccccc1S(=O)(=O)O` [Example 103], the “MED value (minimum effective dose)” value in assay [1] amounted to 1 µM.

Take `COC(=O)C(Cc1c[nH]c2cc(F)ccc12)NC(=O)c1c(O)cccc1O` (stereo not shown) [Example 17]: the “MED value (minimum effective dose)” value in assay [1] was 1 µM.

Regarding `N[C@H](Cc1c[nH]c2ccccc12)C(=O)Nc1c(O)cccc1O` [Example 23], in assay [1], the “MED value (minimum effective dose)” value is 10 µM.

For `CC(C)(C)OC(=O)NC(Cc1c[nH]c2ccccc12)C(=O)Nc1c(O)cccc1O` (stereo in doubt) [Example 21, tert-butyl (S)-1-(2,6-dihydroxyphenylcarbamoyl)-2-(1H-indol-3-yl)ethylcarbamate], in assay [1], the “MED value (minimum effective dose)” value was 10 µM.

With `O=C(CCc1c[nH]c2ccccc12)Nc1c(O)cccc1O` [Example 87], in assay [1], the “MED value (minimum effective dose)” value worked out at 3 µM.

Take `Cc1cccc2[nH]cc(SC(CC(C)C)C(=O)NCCO)c12` (stereo not shown) [Example S3969, N-(2-hydroxyethyl)-4-methyl-2-(4-methyl-1H-indol-3-ylthio)pentanamide]: on ENaC β subunit, the “action on ENaC” value is listed as “stimulant (activator) of ENaC that acts on β subunit”.

On to `O=C(N[C@@H](Cc1c[nH]c2ccccc12)C(=O)OCc1ccccc1)c1c(O)cccc1O` [Example 15], for which the “MED value (minimum effective dose)” value in assay [1] is 10 µM.

As for `O=C(CCc1ccccc1)NC(C(=O)O)c1ccccc1` (stereo not shown) [Example 79], in assay [1], the “MED value (minimum effective dose)” value is 10 µM.

Regarding `COC(=O)[C@H](Cc1ccccc1)NC(=O)c1ccc(Br)cc1O` [Example 107], the “MED value (minimum effective dose)” value in assay [1] came to 3 µM.

For the compound `N[C@@H](Cc1c[nH]c2ccccc12)C(=O)Nc1ccccc1S(=O)(=O)O` [Example 119], in assay [1], the “MED value (minimum effective dose)” value came out at 0.3 µM.

Regarding `O=C(CCc1ccccc1)NC(Cc1c[nH]c2ccc(F)cc12)C(=O)O` (stereo not shown) [Example 76], the “MED value (minimum effective dose)” value in assay [1] was 3 µM.

For `CCOC(=O)[C@H](Cc1ccccc1)NC(=O)c1c(O)cc(C)cc1O` [Example 114], the “MED value (minimum effective dose)” value in assay [1] was 10 µM.
